What was measured:
[1] = test system: nociceptive reflex response (tail removal caused by painful heat stimulus); experiment: "Tail-Flick" test, analgesic activity; type: in vivo, male Swiss mice; details: mice
Procedure: Tests consisting in measuring the in vivo activity of the compounds of the invention on a nociceptive reflex response were performed. In this approach, the latency of the animal's nociceptive reflex response is measured as a pain indicator.
The analgesic activity was determined by means of the “tail-flick” test in male Swiss mice (Iffa Credo). This test is based on the spontaneous nociceptive reflex of removal of the animal's tail caused by a painful heat stimulus (infrared source). The “tail-flick” test (D'Amour-Smith test, 1941, Pharmacol. Exp. Ther.; 72: 74-79) consists, after administering a product, in placing a mouse's tail at the focal point of the infrared source so as to produce a nociceptive heat stimulus (surface temperature of about 55-60° C.). The mouse's reaction time (RT) (latency between the moment when the light beam is switched on and the moment when the mouse removes its tail) was measured in duplicate at different times ranging from 20 minutes to 120 minutes after administration of the product. The heat intensity is regulated such that this removal reflex is between 0.5 and 3.5 seconds in the control animals, and arbitrarily represents the criterion for minimum analgesia (0%). Two reaction time measurements were taken before administration of the product for each mouse, to establish a baseline measurement time. A maximum time of 8 seconds was chosen as the maximum reaction time so as not to induce tissue damage by burning the animals, and arbitrarily represents the criterion for maximum analgesia (100%). The reaction time is increased by the analgesics relative to a control animal not receiving any treatment. The products were administered subcutaneously and orally at doses of between 1.25 and 30 mg/kg. […]
The percentage of analgesic activity (% MPE) is determined by the following formula: %MPE=(RTpost-administration−RTpre-administration)*100/(RTmax−RTpre-administration).

SMILES: CN1CC[C@]23c4c5ccc(O)c4O[C@H]2C(O[C@@H]2OC(c4nc6n(n4)CCC(O)N6)[C@@H](O)C(O)C2O)C=CC3[C@H]1C5 (stereo partly drawn) [morphin-6-yl 5-C-(5-hydroxy-4,5,6,7-tetrahydro[1,2,4]triazolo[1,5-a]pyrimidin-2-yl)-β-D-xylopyranoside]
- melting point: 201 °C
- ED50 ([1]; Mus musculus, sc, 1 h, subcutaneous, determined 60 minutes after administration): < 1.25 mg/kg
- duration of the analgesic action ([1]; subcutaneous administration): more than 120 minutes
- maximum percentage of analgesic activity (% MPE max index) ([1]; subcutaneous, dose of 1.25 mg/kg): 80%

Reference: patent US8440634B2, “Bicyclic derivatives of morphine-6-glucuronide, preparation method thereof and use of same in therapeutics” (Sanofi, priority 2008, dated 2013)
